Source: ChEMBL document CHEMBL5375995, “Discovery and Mechanistic Study of Novel Mycobacterium tuberculosis ClpP1P2 Inhibitors” (J Med Chem, 2023)
In brackets after ≈: the same amount, converted by molar mass. Activity calls are given as the source filed them. No cut-off for these calls is given here.

Assays:
ClpP1P2 [1] = molecular target: T1, ClpP1P2 (Mycobacterium tuberculosis (strain ATCC 25618 / H37Rv), UniProt P9WPC3+P9WPC5); experiment: Inhibition of N-terminal His6-SUMO-tagged Mtb ClpP1 (7 to 200 residues)/ClpP2 (13 to 214 residues) complex expressed in Escherichia coli BL21(DE3) using Z-Gly-Gly-Leu-AMC as substrate measured for 60 mins in presence of Bz-LL by fluorescence based assay
ClpP1P2 [2] = molecular target: T1, ClpP1P2; experiment: Inhibition of N-terminal His6-SUMO-tagged Mtb ClpP1 (7 to 200 residues)/ClpP2 (13 to 214 residues) complex expressed in Escherichia coli BL21(DE3) using FITC-casein as substrate measured for 1 hr in presence of Bz-LL/ATP by fluorescence based assay
[3] = molecular target: ATP-dependent Clp protease ATP-binding subunit ClpC1 (Mycobacterium tuberculosis) (UniProt P9WPC9); experiment: Inhibition of N-terminal His6-tagged full-length Mtb ClpC1 ATPase activity expressed in Escherichia coli BL21(DE3) at 100 uM in presence of PK/LDH/ATP/NADH by spectrophotometry
[4] = molecular target: ATP-dependent Clp protease ATP-binding subunit ClpC1 (Mycobacterium tuberculosis) (UniProt P9WPC9); experiment: Inhibition of N-terminal His6-tagged full-length Mtb ClpC1 creatine kinase activity expressed in Escherichia coli BL21(DE3) using creatine phosphate as substrate at 100 uM preincubated for 10 mins followed by substrate addition measured after 10 mins in presence of ADP by Kinase-Glo assay; conditions: time 20.0 min
ClpP1P2 [5] = molecular target: T1, ClpP1P2; experiment: Binding affinity to N-terminal His6-SUMO-tagged Mtb ClpP1 (7 to 200 residues)/ClpP2 (13 to 214 residues) complex expressed in Escherichia coli BL21(DE3) assessed as increase in thermal stability measured at 25 to 110 degreeC in presence of Bz-LL by DSF assay
[6] = tested on: Mycobacterium tuberculosis; experiment: Antibacterial activity against Mycobacterium tuberculosis H37Ra assessed as bacterial growth inhibition incubated for 24 hrs by broth microdilution method; type: functional
[7] = tested on: Mycolicibacterium smegmatis; experiment: Antibacterial activity against wild-type Mycobacterium smegmatis mc2 155 assessed as bacterial growth inhibition incubated for 2 days by Alamar blue staining based assay; type: functional; conditions: mc2 155, 48 h, time 2 day
[8] = molecular target: T2, ClpP1P2 (Mycobacterium tuberculosis (strain ATCC 25618 / H37Rv)) (UniProt P9WPC5+P9WPC3); experiment: Inhibition of N-terminal His6-SUMO-tagged Mtb ClpP1 (7 to 200 residues)/ClpP2 (13 to 214 residues) complex expressed in Escherichia coli BL21(DE3) using GFP-ssrA as substrate measured for 1 hr in presence of Bz-LL/ATP by fluorescence based assay
ClpP1P2 [9] = molecular target: T1, ClpP1P2; experiment: Inhibition of N-terminal His6-SUMO-tagged Mtb ClpP1 (7 to 200 residues)/ClpP2 (13 to 214 residues) complex expressed in Escherichia coli BL21(DE3) using GFP-ssrA as substrate incubated for 3 hrs in presence of Bz-LL/ATP by Coomassie blue staining based assay
[10] = Inhibition of Staphylococcus aureus […] complex expressed in Escherichia coli BL21(DE3) using GFP-ssrA as substrate incubated for 3 hrs in presence of Bz-LL/ATP/ONC212 by Coomassie blue staining based assay
[11] = (§1) Selectivity index, ratio of IC50 for full-length human ClpP complex ([…]) expressed in Escherichia coli BL21(DE3) using Ac-WLA-AMC as substrate to IC50 for N-terminal His6-SUMO-tagged Mtb ClpP1 (7 to 200 residues)/ClpP2 (13 to 214 residues) complex expressed in Escherichia coli BL21(DE3) using Z-Gly-Gly-Leu-AMC as substrate
[12] = as §1, with “FITC-casein” for “Ac-WLA-AMC”
[13] = molecular target: T2, ClpP1P2 (Mycobacterium tuberculosis (strain ATCC 25618 / H37Rv)); experiment: Binding affinity to N-terminal His6-SUMO-tagged Mtb ClpP1 (7 to 200 residues) expressed in Escherichia coli BL21(DE3) assessed as reduction in fluorescence intensity at 25 to 100 uM incubated for 30 mins in presence of Bz-LL by spectrophotometry relative to control; parameters: scale not given: the % may be the effect or the level left; conditions: dose 25-100 µM
[14] = tested on: Mycobacterium tuberculosis; experiment: Binding affinity to N-terminal His6-SUMO-tagged Mtb ClpP1 (7 to 200 residues)/ClpP2 (13 to 214 residues) complex expressed in Escherichia coli BL21(DE3) assessed as reduction in fluorescence intensity at 25 to 100 uM incubated for 30 mins in presence of Bz-LL by spectrophotometry relative to control; parameters: scale not given: the % may be the effect or the level left; conditions: dose 25-100 µM
[15] = Inhibition of N-terminal His6-SUMO-tagged Mycobacterium smegmatis ClpP1 (3 to 200 residues)/P2 (17 to 218 residues) expressed in Escherichia coli BL21(DE3) using Z-Gly-Gly-Leu-AM as substrate measured for 60 mins in presence of Bz-LL by fluorescence based assay; parameters: species or system Mycolicibacterium smegmatis
[16] = Inhibition of N-terminal His6-SUMO-tagged Mycobacterium smegmatis ClpP1 (3 to 200 residues)/P2 (17 to 218 residues) expressed in Escherichia coli BL21(DE3)/C1 using Z-Gly-Gly-Leu-AM as substrate measured for 60 mins in presence of Bz-LL by fluorescence based assay; parameters: species or system Mycolicibacterium smegmatis
[17] = tested on: Mycolicibacterium smegmatis; experiment: Antibacterial activity against Mycobacterium smegmatis mc2 155 harboring ClpX knockout assessed as bacterial growth inhibition incubated for 2 days by Alamar blue staining based assay; type: functional; conditions: mc2 155, 48 h, time 2 day
[18] = tested on: Mycolicibacterium smegmatis; experiment: Antibacterial activity against Mycobacterium smegmatis mc2 155 harboring ClpC1 knockout assessed as bacterial growth inhibition incubated for 2 days by Alamar blue staining based assay; type: functional; conditions: mc2 155, 48 h, time 2 day
[19] = tested on: Mycolicibacterium smegmatis; experiment: Antibacterial activity against wild-type Mycobacterium smegmatis mc2 155 assessed as bacterial growth inhibition upto 512 uM incubated for 2 days in presence of ATc by Alamar blue staining based assay; type: functional, organism-based; conditions: time 2.0 day
[20] = tested on: Mycolicibacterium smegmatis; experiment: Antibacterial activity against wild-type Mycobacterium smegmatis mc2 155 harboring ClpP-tetoff mutant assessed as bacterial growth inhibition upto 512 uM incubated for 2 days in presence of ATc by Alamar blue staining based assay; type: functional, organism-based; conditions: time 2.0 day

T1 sequence (P9WPC5 whole entry, the tested form may be a part): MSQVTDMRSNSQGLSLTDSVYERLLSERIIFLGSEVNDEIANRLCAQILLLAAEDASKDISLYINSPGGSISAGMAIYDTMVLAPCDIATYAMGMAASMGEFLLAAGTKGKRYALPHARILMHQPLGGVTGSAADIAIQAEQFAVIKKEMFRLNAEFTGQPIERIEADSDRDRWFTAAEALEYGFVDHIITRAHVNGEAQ
T1 sequence (P9WPC3 whole entry, the tested form may be a part): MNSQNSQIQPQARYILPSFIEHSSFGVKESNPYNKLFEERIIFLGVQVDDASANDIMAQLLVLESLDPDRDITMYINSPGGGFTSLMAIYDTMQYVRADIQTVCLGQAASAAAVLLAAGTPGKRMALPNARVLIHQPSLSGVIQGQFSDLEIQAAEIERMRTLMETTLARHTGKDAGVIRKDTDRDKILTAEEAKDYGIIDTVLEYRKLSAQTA
Chain of ATP-dependent Clp protease ATP-binding subunit ClpC1 (Mycobacterium tuberculosis) (P9WPC9 whole entry, the tested form may be a part): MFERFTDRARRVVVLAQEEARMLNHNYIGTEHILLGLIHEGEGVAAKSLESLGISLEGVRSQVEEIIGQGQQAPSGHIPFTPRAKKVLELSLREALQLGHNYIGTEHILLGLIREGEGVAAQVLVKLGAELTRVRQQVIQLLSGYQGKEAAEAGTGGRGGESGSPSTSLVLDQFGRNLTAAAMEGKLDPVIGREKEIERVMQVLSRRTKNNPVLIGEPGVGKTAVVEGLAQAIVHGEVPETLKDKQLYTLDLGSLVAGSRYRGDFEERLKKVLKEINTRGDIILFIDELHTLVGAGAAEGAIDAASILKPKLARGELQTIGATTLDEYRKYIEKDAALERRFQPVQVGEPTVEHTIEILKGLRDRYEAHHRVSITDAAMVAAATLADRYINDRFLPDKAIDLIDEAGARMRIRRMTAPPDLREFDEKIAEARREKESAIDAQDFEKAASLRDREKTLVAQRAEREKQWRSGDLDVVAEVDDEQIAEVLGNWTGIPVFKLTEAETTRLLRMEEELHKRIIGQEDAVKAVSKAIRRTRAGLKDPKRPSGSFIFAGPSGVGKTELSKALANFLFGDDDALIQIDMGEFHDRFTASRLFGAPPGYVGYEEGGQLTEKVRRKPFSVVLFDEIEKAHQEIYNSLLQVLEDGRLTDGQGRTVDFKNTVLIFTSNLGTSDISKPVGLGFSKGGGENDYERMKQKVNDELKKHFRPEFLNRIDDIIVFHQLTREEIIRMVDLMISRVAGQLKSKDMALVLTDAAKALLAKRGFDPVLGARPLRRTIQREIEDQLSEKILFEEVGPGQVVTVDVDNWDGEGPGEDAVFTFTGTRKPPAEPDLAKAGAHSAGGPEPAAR

SMILES: COc1cc2c(Oc3ccc4[nH]c(C)cc4c3F)ncnc2cc1OCCCN1CCC(c2ccc(C(N)=O)cc2)CC1
- IC50 (ClpP1P2 [1]): 2.6 µM
- IC50 (ClpP1P2 [2]): 8.9 µM
- inhibition [3]: inactive
- inhibition [4]: inactive
- EC50 (ClpP1P2 [5]): 12.1 µM
- MIC [6]: 12.5 µM (≈ 7.3 µg/mL)
- MIC [7]: > 439 µg/mL
- inhibition [8]: Active
- IC50 (ClpP1P2 [9]): > 100 µM
- IC50 [10]: 193 µM
- Ratio IC50 [11]: 12.1
- Ratio IC50 [12]: 18.4
- Activity [13]: 10%
- Activity [14]: 60%
- IC50 [15]: 1.8 µM
- IC50 [16]: 22.1 µM
- MIC [17]: 85.7 µg/mL (≈ 147 µM)
- MIC [18]: 42.8 µg/mL (≈ 73.3 µM)
- growth inhibition (GI) [19]: Active
- growth inhibition (GI) [20]: Active
